Results published in PubChem BioAssay (NCI).
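Method: 48-hour compound exposure of cells in 96-well plates, five concentrations, linear interpolation of endpoints. The concentration for full growth arrest is given as TGI.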

What was measured:
Experiment in all cases: NCI anticancer screen, dose series, 48 h
A549 NSCLC = system: A549 NSCLC
BT-549 breast = system: BT-549 breast
CAKI-1 renal = system: CAKI-1 renal
CCRF-CEM leukemia = system: CCRF-CEM leukemia
HL-60(TB) leukemia = system: HL-60(TB) leukemia
HOP-92 NSCLC = system: HOP-92 NSCLC
M14 melanoma = system: M14 melanoma
MALME-3M melanoma = system: MALME-3M melanoma
MCF7 breast = system: MCF7 breast
MDA-N = system: MDA-N
NCI-H522 lung = system: NCI-H522 lung
OVCAR-8 ovarian = system: OVCAR-8 ovarian
RXF 393 renal = system: RXF 393 renal
SF-295 CNS = system: SF-295 CNS
SK-MEL-5 melanoma = system: SK-MEL-5 melanoma
SN12C renal = system: SN12C renal
SW-620 colon = system: SW-620 colon
TK-10 renal = system: TK-10 renal
U251 CNS = system: U251 CNS
UO-31 renal = system: UO-31 renal

Structure (SMILES) | TGI (A549 NSCLC) [µM] | TGI (BT-549 breast) [µM] | TGI (CAKI-1 renal) [µM] | TGI (CCRF-CEM leukemia) [µM] | TGI (HL-60(TB) leukemia) [µM] | TGI (HOP-92 NSCLC) [µM] | TGI (M14 melanoma) [µM] | TGI (MALME-3M melanoma) [µM] | TGI (MCF7 breast) [µM] | TGI (MDA-N) [µM] | TGI (NCI-H522 lung) [µM] | TGI (OVCAR-8 ovarian) [µM] | TGI (RXF 393 renal) [µM] | TGI (SF-295 CNS) [µM] | TGI (SK-MEL-5 melanoma) [µM] | TGI (SN12C renal) [µM] | TGI (SW-620 colon) [µM] | TGI (TK-10 renal) [µM] | TGI (U251 CNS) [µM] | TGI (UO-31 renal) [µM]
O=c1cc(-c2cccc(OCc3ccccc3)c2)[nH]c2cc3c(cc12)OCO3 | > 22.7 | > 100 | > 50.8 | 0.481 | 0.412 | 18.6 | > 84.5 | > 100 | > 100 | 0.417 | 1.42 | 9.87 | 8.15 | 14.4 | > 100 | > 22.1 | > 100 | 24.7 | 1.84 | 16
CCN(CC)CCCNc1ncc(C)c2c1c1ccc3c(O)cccc3c1n2C | 2.34 | 4.05 | 3.4 | 6.1 | 5.07 | 26.6 | 9.07 | 34.7 | 2.06 | 3.01 | 2.29 | 3.5 | 9.41 | 4.76 | 13.4 | 14.3 | 2.61 | 22.9 | 2.6 | 21.2
CCn1c2ccccc2c2cc(NC(=O)c3c(NCCNCCO)nc(=O)[nH]c3C)ccc21 | > 100 | > 100 | > 100 | > 100 | > 100 | > 100 | > 100 | > 100 | > 100 | > 100 | > 100 | > 100 | > 100 | > 100 | > 100 | > 100 | > 100 | > 100 | > 100 | > 100
COC(=O)c1ccccc1C1CN=NC12Cc1cc(C)cc(C)c1C2=O (stereo not given) | > 100 | > 100 | > 100 | > 100 | 51.7 | > 100 | > 100 | > 100 | > 100 | > 100 | 90 | > 100 | > 100 | > 100 | > 100 | > 100 | > 100 | > 100 | > 100 | > 100
